For this experiment, the system named is BDF1 mice, P388 leukemia ip, median survival T/C. Put plainly: NCI In Vivo Anticancer Drug Screen. Data for tumor model P388 Leukemia (intraperitoneal) in B6D2F1 (BDF1) mice. Conditions: endpoint: median survival time, higher = longer survival. The gist of the method: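 In tumour-bearing mice, survival after compound treatment is set against the vehicle group and given as a quotient.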

The mark [1] stands for this setting: dose: 25.0 mg/kg/injection, schedule: Q01DX009 (ip), vehicle: saline with Tween-80.
Setting [2] is: dose: 50.0 mg/kg/injection, schedule: Q01DX009 (ip), vehicle: saline with Tween-80.
Where [3] appears, read: dose: 100.0 mg/kg/injection, schedule: Q01DX009 (ip), vehicle: saline with Tween-80.
Setting [4] is: dose: 100.0 mg/kg/injection, schedule: Q04DX003 (ip), vehicle: Klucel (hydroxypropylcellulose) (HPC).
Where [5] appears, read: dose: 200.0 mg/kg/injection, schedule: Q04DX003 (ip), vehicle: Klucel (hydroxypropylcellulose) (HPC).
Where [6] appears, read: dose: 200.0 mg/kg/injection, schedule: Q01DX009 (ip), vehicle: saline with Tween-80.
[7] abbreviates: dose: 50.0 mg/kg/injection, schedule: Q04DX003 (ip), vehicle: Klucel (hydroxypropylcellulose) (HPC).
Setting [8] is: dose: 100.0 mg/kg/injection, schedule: Q04DX003 (ip), vehicle: saline with Tween-80.
[9] abbreviates: dose: 200.0 mg/kg/injection, schedule: Q04DX003 (ip), vehicle: saline with Tween-80.
Where [10] appears, read: dose: 400.0 mg/kg/injection, schedule: Q01DX009 (ip), vehicle: saline with Tween-80.
Setting [11] is: dose: 400.0 mg/kg/injection, schedule: Q04DX003 (ip), vehicle: saline with Tween-80.
[12] abbreviates: dose: 50.0 mg/kg/injection, schedule: Q01DX009 (ip), vehicle: saline.

Values joined by “and” are separate entries in the source; they are usually repeats but may differ in a detail not shown here. Identical values can stand only once. Inconclusive results and toxic doses are left out.

Turning to `C1=CC2CC1C1CSCC21` (stereo not given), the T/C was 100 % of control (dose: 0.03 mg/kg/injection, schedule: Q04DX003 (ip), vehicle: saline); 91 % of control (dose: 0.06 mg/kg/injection, schedule: Q04DX003 (ip), vehicle: saline); 95 % of control (dose: 0.13 mg/kg/injection, schedule: Q04DX003 (ip), vehicle: saline); 95 % of control (dose: 0.19 mg/kg/injection, schedule: Q01DX009 (ip), vehicle: saline); 100 % of control (dose: 0.27 mg/kg/injection, schedule: Q04DX003 (ip), vehicle: saline); 104 % of control (dose: 0.39 mg/kg/injection, schedule: Q01DX009 (ip), vehicle: saline).
Regarding `[N-]=[N+]=NCc1cnccn1`, the T/C (dose: 12.5 mg/kg/injection, schedule: Q01DX009 (ip), vehicle: saline) was 100 % of control and the T/C (dose: 25.0 mg/kg/injection, schedule: Q01DX009 (ip), vehicle: saline) is 113 % of control.
Take `Oc1cccc2ccc(CC(O)(c3ccccc3)c3ccccc3)nc12`: the T/C is 108 % of control under setting [1], 99 % of control under setting [2] and 108 % of control under setting [3].
As to `CCCCCCCCCCCCS(=O)(=O)O` (tested in a mixture with another compound), the T/C under setting [4] was 95 % of control and the T/C under setting [5] was 90 % of control.
In the case of `CC(CCC/C=C/CCCN(C)C(=N)N)CC(C)C1OC(=O)C(C)C(O)/C=C/C(C)C(O)C(C)C(O)C(C)C(O)CCCC(O)CC2(O)OC(CC(OC(=O)CC(=O)O)CC(O)CC(O)C(C)C(O)/C=C/C=C/C1C)CC(O)C2O` (stereo not given), the T/C (dose: 1.8 mg/kg/injection, schedule: Q01DX009 (ip), vehicle: saline with Tween-80) is 124 % of control; the T/C (dose: 1.82 mg/kg/injection, schedule: Q04DX003 (ip), vehicle: saline) was 90 % of control; the T/C (dose: 2.5 mg/kg/injection, schedule: Q01DX001 (ip), vehicle: saline) is 109 % of control; the T/C (dose: 3.65 mg/kg/injection, schedule: Q01DX009 (ip), vehicle: saline with Tween-80) was 116 % of control; the T/C (dose: 3.65 mg/kg/injection, schedule: Q04DX003 (ip), vehicle: saline) was 109 % of control; the T/C (dose: 5.0 mg/kg/injection, schedule: Q01DX001 (ip), vehicle: saline) was 100 % of control. Further, the T/C by setting is: (dose: 7.3 mg/kg/injection, schedule: Q01DX009 (ip), vehicle: saline with Tween-80) 104 % of control; (dose: 7.3 mg/kg/injection, schedule: Q04DX003 (ip), vehicle: saline) 104 % of control; (dose: 10.0 mg/kg/injection, schedule: Q01DX001 (ip), vehicle: saline) 109 % of control; (dose: 10.0 mg/kg/injection, schedule: Q04DX003 (ip), vehicle: saline) 100 % of control.
Turning to `c1ccc(-c2nc3ncccn3n2)cc1`, the T/C by setting is: under setting [1], 97 % of control; under setting [2], 106 % of control and 111 % of control; under setting [3], 104 % of control and 120 % of control; under setting [6], 104 % of control and 112 % of control.
Regarding `CCOc1ccc2nnnn2n1`, the T/C (dose: 62.5 mg/kg/injection, schedule: Q01DX009 (ip), vehicle: saline) is 100 % of control and the T/C (dose: 250.0 mg/kg/injection, schedule: Q01DX009 (ip), vehicle: saline) was 97 % of control.
With `O=C(Nc1ccc(Cl)c(Cl)c1)ON1CCCCC1`, the T/C was 100 % of control under setting [2], 100 % of control under setting [3] and 106 % of control under setting [6].
In the case of `CCCSCCCC(=O)O`, the T/C under setting [7] was 91 % of control and the T/C under setting [5] is 91 % of control.
`O=[N+]([O-])c1ccc(/C=C2\c3ccccc3-c3nc4ccccc4nc32)cc1`: the T/C was 118 % of control (dose: 150.0 mg/kg/injection, schedule: Q01DX001 (ip), vehicle: other) and 86 % of control (dose: 300.0 mg/kg/injection, schedule: Q01DX001 (ip), vehicle: other).
As for `c1ccc(OCc2ccc(COc3ccccc3)cc2)cc1`, the T/C was 96 % of control (dose: 6.25 mg/kg/injection, schedule: Q01DX009 (ip), vehicle: Klucel (hydroxypropylcellulose) (HPC)); 96 % of control (dose: 12.5 mg/kg/injection, schedule: Q01DX009 (ip), vehicle: Klucel (hydroxypropylcellulose) (HPC)); 92 % of control and 96 % of control (dose: 25.0 mg/kg/injection, schedule: Q01DX009 (ip), vehicle: Klucel (hydroxypropylcellulose) (HPC)); 100 % of control (dose: 25.0 mg/kg/injection, schedule: Q04DX003 (ip), vehicle: Klucel (hydroxypropylcellulose) (HPC)); 104 % of control under setting [7]; 92 % of control (dose: 100.0 mg/kg/injection, schedule: Q01DX009 (ip), vehicle: Klucel (hydroxypropylcellulose) (HPC)). The T/C under setting [4] was 100 % of control.
Turning to `O=C(NCCNc1ccc(F)cc1)C12CC3CC(CC(C3)C1)C2`, the T/C under setting [2] is 91 % of control, the T/C under setting [3] is 104 % of control and the T/C under setting [6] is 97 % of control.
With `CCOC(=O)c1c(N)sc2c1CCN(Cc1ccccc1)C2`, the T/C runs as follows: under setting [3], 104 % of control; under setting [8], 100 % of control; under setting [6], 95 % of control; under setting [9], 104 % of control; under setting [10], 119 % of control; under setting [11], 109 % of control.
Regarding `NC(=O)Oc1ccccc1`, the T/C by setting is: under setting [3], 104 % of control; under setting [6], 109 % of control; under setting [10], 86 % of control.
Turning to `N=c1cc(-c2ccc(Cl)cc2)ss1`, the T/C reads like this: under setting [12], 117 % of control; (dose: 50.0 mg/kg/injection, schedule: Q04DX003 (ip), vehicle: saline) 97 % of control; (dose: 100.0 mg/kg/injection, schedule: Q04DX003 (ip), vehicle: saline) 105 % of control; (dose: 200.0 mg/kg/injection, schedule: Q04DX003 (ip), vehicle: saline) 108 % of control.
Turning to `O=CC(NC(=O)N(CCCl)N=O)C(O)C(O)C(O)CO` (stereo not given), the T/C was 157 % of control (dose: 1.3 mg/kg/injection, schedule: Q01DX009 (ip), vehicle: saline); 198 % of control (dose: 2.0 mg/kg/injection, schedule: Q01DX009 (ip), vehicle: saline); 230 % of control (dose: 3.0 mg/kg/injection, schedule: Q01DX009 (ip), vehicle: saline); 238 % of control (dose: 4.5 mg/kg/injection, schedule: Q01DX009 (ip), vehicle: saline); 250 % of control (dose: 6.48 mg/kg/injection, schedule: Q04DX003 (ip), vehicle: saline); 238 % of control (dose: 6.7 mg/kg/injection, schedule: Q01DX009 (ip), vehicle: saline). The T/C is, setting by setting: (dose: 6.8 mg/kg/injection, schedule: Q01DX009 (ip), vehicle: saline) 169 % of control; (dose: 10.0 mg/kg/injection, schedule: Q01DX009 (ip), vehicle: saline) 203 % of control; (dose: 10.8 mg/kg/injection, schedule: Q04DX003 (ip), vehicle: saline) 514 % of control; (dose: 13.0 mg/kg/injection, schedule: Q01DX001 (ip), vehicle: saline) 238 % of control and 211 % of control; (dose: 18.0 mg/kg/injection, schedule: Q04DX003 (ip), vehicle: saline) 262 % of control; (dose: 20.0 mg/kg/injection, schedule: Q01DX001 (ip), vehicle: saline) 237 % of control and 203 % of control. For the same compound, the T/C (dose: 30.0 mg/kg/injection, schedule: Q01DX001 (ip), vehicle: saline) is 253 % of control and 95 % of control; the T/C (dose: 45.0 mg/kg/injection, schedule: Q01DX001 (ip), vehicle: saline) was 254 % of control.
Take `O=C(CSc1ncnc2nc[nH]c12)c1ccccc1`: the T/C under setting [3] was 104 % of control; the T/C under setting [8] is 86 % of control; the T/C under setting [6] was 104 % of control; the T/C under setting [9] is 100 % of control; the T/C under setting [10] was 100 % of control; the T/C under setting [11] was 91 % of control.
`CCN(CC)CC(=O)Nc1ccc(Cl)cc1C(O)c1ccccc1` (stereo not given): the T/C is, setting by setting: under setting [12], 103 % of control; (dose: 100.0 mg/kg/injection, schedule: Q01DX009 (ip), vehicle: saline) 97 % of control; (dose: 200.0 mg/kg/injection, schedule: Q01DX009 (ip), vehicle: saline) 100 % of control.
On to `Cc1ccc(C(=O)CO)cc1`, for which the T/C under setting [2] was 98 % of control, the T/C under setting [3] was 102 % of control and the T/C under setting [6] was 98 % of control.

(Values after PubChem BioAssay AID328 (DTP/NCI, 2004).)
